Calls of active or inactive are those of the source. No cut-off for these calls is given here.
Legend:
[1] = Toxicity against MRC5 cell line; format: cell-based; details: human, MRC5 cells
ScN2a [2] = test: Inhibition of scrapie prion formation in mouse ScN2a cell line; format: functional
ScN2a [3] = test: Selectivity index, toxicity against ScN2a cell line/EC50 for scrapie prion formation in mouse ScN2a cell line; format: functional
ScN2a [4] = test: Toxicity against ScN2a cell line; format: cell-based; details: mouse
ScN2a [5] = test: Inhibition of scrapie prion formation in mouse ScN2a cell line relative to control; format: functional, cell-based
MRC5 = test: Selectivity index, toxicity against MRC5 cell line/EC50 for scrapie prion formation in mouse ScN2a cell line; format: functional
Plasmodium falciparum [6] = test: Antimalarial activity against chloroquine-resistant Plasmodium falciparum FcB1 at 100 nM; format: functional
ScN2a [7] = test: Inhibition of scrapie prion formation in mouse ScN2a cell line at 200 nM; format: functional, cell-based
Plasmodium falciparum [8] = test: microbe, parasite or virus in culture; details: FcB1
ScN2a [9] = test: Toxicity against ScN2a cell line at 10 uM; format: cell-based; details: mouse

SMILES | CC50 [1] | Activity (ScN2a [2]) | Selectivity index (ScN2a [3]) | Activity (ScN2a [4]) | EC50 (ScN2a [5]) | Selectivity index (MRC5) | inhibition at 0.1 µM (Plasmodium falciparum [6]) | Activity (ScN2a [7]) | IC50 (Plasmodium falciparum [8]) | Activity (ScN2a [9])
O=C(NCCCN1CCN(CCCNc2ccnc3cc(Cl)ccc23)CC1)c1cccc(Oc2ccccc2)c1 | 5 µM | 300 nM | 3.75 | 750 nM | 200 nM | 25 |  |  |  | 
O=C(NCCCN1CCN(CCCNc2ccnc3cc(Cl)ccc23)CC1)C1c2ccccc2Oc2ccccc21 |  | 300 nM | 7.5 | 750 nM | 100 nM |  | 11% |  |  | 
COc1ccc(C(=O)NCCCN2CCN(CCCNc3ccnc4cc(Cl)ccc34)CC2)cc1 | 4 µM | 300 nM | 30 | 3000 nM | 100 nM | 40 |  |  |  | 
O=S(=O)(NCCCN1CCN(CCCNc2ccnc3cc(Cl)ccc23)CC1)c1ccc(Cl)cc1 |  | 500 nM | 8 | 2000 nM | 250 nM |  | 26% |  |  | 
CC(C)(C)c1ccc(C(=O)NCCCN2CCN(CCCNc3ccnc4cc(Cl)ccc34)CC2)cc1 |  | 200 nM | 10 | 1000 nM | 100 nM |  |  | Active | 54.8 nM | 
CCN(CC)CCCC(C)Nc1ccnc2cc(Cl)ccc12 (stereo unspecified) [CHLOROQUINE] | 50 µM | 10000 nM |  |  | 4000 nM |  |  |  |  | Non-toxic
O=C(NCCCN1CCN(CCCNc2ccnc3cc(Cl)ccc23)CC1)c1ccncc1 |  | 5000 nM |  |  | 3000 nM |  | 1% |  |  | Non-toxic
O=C(c1ccc2ccccc2c1)N(CCCN1CCN(CCCNc2ccnc3cc(Cl)ccc23)CC1)CC1CC1 |  | 300 nM | 26.67 | 2000 nM | 75 nM |  | 23% |  |  | 
